Experimental data: the supplement of paper PMC10307832

Tests used:
Assay in all cases: relative viability (nuclei count vs DMSO), 5 days (fraction); higher = more cells survive
Ispinesib + Vorinostat = compound: Cc1ccc(C(=O)N(CCCN)[C@@H](c2nc3cc(Cl)ccc3c(=O)n2Cc2ccccc2)C(C)C)cc1 [Ispinesib] + O=C(CCCCCCC(=O)Nc1ccccc1)NO [Vorinostat] (partner 1 µM)
Procedure, shortened: (§1)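 Nuclei were stained with Hoechst during a one-step fixation (final 0.05% Triton X-100, 1% formaldehyde, 1 ug/ml Hoechst) carried out 5 days after dosing, then counted on 4× images. The cells, lung cancer lines in 1536-well plates, had been dosed by pin tool the day after seeding with one drug alone or a fixed anchor-drug dose plus five library-drug doses (not always all listed) in √10 steps. Relative viability is the nuclei count in treated wells divided by that in vehicle wells, and each value is the median of duplicate plates.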

Linsitinib + Alpelisib = compound: C[C@]1(O)C[C@@H](c2nc(-c3ccc4ccc(-c5ccccc5)nc4c3)c3c(N)nccn32)C1 [Linsitinib] + Cc1nc(NC(=O)N2CCC[C@H]2C(N)=O)sc1-c1ccnc(C(C)(C)C(F)(F)F)c1 [Alpelisib] (partner 2 µM)
Procedure, shortened: as §1

Linsitinib + Palbociclib = compound: C[C@]1(O)C[C@@H](c2nc(-c3ccc4ccc(-c5ccccc5)nc4c3)c3c(N)nccn32)C1 [Linsitinib] + CC(=O)c1c(C)c2cnc(Nc3ccc(N4CCNCC4)cn3)nc2n(C2CCCC2)c1=O [Palbociclib] (partner 0.5 µM)
Procedure, shortened: as §1

Ispinesib + Pemetrexed = compound: Cc1ccc(C(=O)N(CCCN)[C@@H](c2nc3cc(Cl)ccc3c(=O)n2Cc2ccccc2)C(C)C)cc1 [Ispinesib] + Nc1nc2[nH]cc(CCc3ccc(C(=O)N[C@@H](CCC(=O)O)C(=O)O)cc3)c2c(=O)[nH]1 [Pemetrexed] (partner 0.2 µM)
Procedure, shortened: as §1

Cell Line	relative viability (Ispinesib + Vorinostat; first compound 0.001 µM)	relative viability (Ispinesib + Vorinostat; first compound 0.003162 µM)	relative viability (Ispinesib + Vorinostat; first compound 0.01 µM)	relative viability (Ispinesib + Vorinostat; first compound 0.03162 µM)	relative viability (Ispinesib + Vorinostat; first compound 0.1 µM)	relative viability (Linsitinib + Alpelisib; first compound 0.01 µM)	relative viability (Linsitinib + Alpelisib; first compound 0.03162 µM)	relative viability (Linsitinib + Alpelisib; first compound 0.1 µM)	relative viability (Linsitinib + Alpelisib; first compound 0.3162 µM)	relative viability (Linsitinib + Alpelisib; first compound 1 µM)	relative viability (Linsitinib + Palbociclib; first compound 0.01 µM)	relative viability (Linsitinib + Palbociclib; first compound 0.03162 µM)	relative viability (Linsitinib + Palbociclib; first compound 0.1 µM)	relative viability (Linsitinib + Palbociclib; first compound 0.3162 µM)	relative viability (Linsitinib + Palbociclib; first compound 1 µM)	relative viability (Ispinesib + Pemetrexed; first compound 0.001 µM)	relative viability (Ispinesib + Pemetrexed; first compound 0.003162 µM)	relative viability (Ispinesib + Pemetrexed; first compound 0.01 µM)	relative viability (Ispinesib + Pemetrexed; first compound 0.03162 µM)	relative viability (Ispinesib + Pemetrexed; first compound 0.1 µM)
HCC-78	0.422	0.49	0.459	0.404	0.414	0.413	0.439	0.26	0.312	0.261	0.45	0.539	0.458	0.525	0.501	0.916	0.931	0.937	0.932	0.617
NCI-H1666	1.11	1.05	1.08	1.07	0.84	0.847	0.869	0.769	0.452	0.477	0.626	0.565	0.656	0.526	0.604	0.89	0.786	0.883	0.91	0.817
COR-L 105	0.933	0.51	1.04	0.49	0.522	0.843	0.869	1.01	0.761	0.829	0.38	0.403	0.437	0.373	0.358	1.09	1.11	1.24	0.794	0.5
LU99A	0.445	0.485	0.467	0.265	0.247	0.517	0.547	0.505	0.417	0.332	0.392	0.432	0.434	–	0.36	0.188	0.21	0.163	0.163	0.141
201T	1	1.01	1.02	0.908	0.28	1.01	1.04	1.1	1.06	1.04	0.357	0.371	0.374	0.364	0.374	0.308	0.334	0.328	0.32	0.264
HCC-15	0.861	0.976	0.968	0.852	0.344	0.918	0.887	0.952	0.582	0.775	0.75	0.703	0.702	0.283	0.569	0.241	0.258	0.23	0.221	0.144
